Here are results for 13 compounds from PubChem BioAssay (NCI).

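Briefly, cells in 96-well plates were exposed to five compound concentrations for 48 h, and endpoints were estimated by linear interpolation. GI50 = concentration required for 50% inhibition of growth. The concentration for full growth arrest is given as TGI.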

Holding throughout (test): inhibition of tumour cell growth, NCI panel, 48 h
The test system of experiment [1] is COLO 205 colon.
Experiment [2] concerns HOP-62 NSCLC.
Experiment [3] relates to K-562 leukemia.
Experiment [4] concerns KM20L2 colon.
The test system of experiment [5] is NCI-H522 lung.
The subject of experiment [6] is SNB-19 CNS.
Experiment [7] has as its system CAKI-1 renal.
Experiment [8] deals with MDA-MB-435.
Experiment [9] relates to T-47D breast.

Consider `O=C(Nc1cc(Cl)ccc1Cl)c1cc2ccccc2oc1=O`, for which the TGI in [1], in experiment [2], in experiment [3], in [4] and in experiment [5] was > 100 µM each time.

In the case of `Cc1cc2c(=O)cc(-c3ccncc3)oc2c(C(N)=O)c1C`, the TGI in experiment [1], in experiment [2], in experiment [4] and in experiment [6] was > 100 µM throughout.

For the compound `Cc1nc2ccccc2c(=O)n1/N=C(\N=Nc1ccc(Cl)cc1)c1ccc(N(C)C)cc1`, the TGI in [7], in experiment [1], in [2], in [3], in [4] and in experiment [5] was > 100 µM in each case. Further, in experiment [6], the TGI was > 100 µM.

As to `CCCCP1(=O)C=CC(Cl)=C(C)C1` (stereo unspecified), the TGI in experiment [1], in [2], in [3], in experiment [4] and in experiment [5] was > 100 µM each time.

Take `COc1cc(CC2c3cc(OC)c(OC)cc3CCN2C)c(C(=O)O)cc1OC` (stereo unspecified): the TGI in [1], in experiment [2], in experiment [3], in [4], in experiment [5] and in [6] was > 100 µM in each case.

Consider `O=c1[nH]c2c(ccc3cnccc32)c2c1CCC2`, for which the GI50 in [7] was 0.308 µM; in experiment [1], 0.241 µM; in [2], 0.431 µM; in experiment [3], 0.657 µM; in [8], 0.307 µM; in experiment [5], 0.277 µM. The GI50 in experiment [6] is 0.356 µM; in experiment [9] it was 0.352 µM. In addition, the TGI is > 100 µM in experiment [7]; 0.677 µM in [1]; > 100 µM in [2]; > 100 µM in experiment [3]; 1.38 µM in experiment [8]; > 100 µM in experiment [6]. Moreover, the TGI in experiment [9] was > 100 µM.

With `Cc1cc(C)c(CNC(=O)c2cc(Cl)c3c(c2C)O[C@@](C)(C2CCC(N(C)C)CC2)O3)c(=O)[nH]1` (stereo partly specified), the GI50 is 93.1 µM in experiment [7]; > 100 µM in experiment [1]; > 100 µM in experiment [2]; 41.6 µM in experiment [3]; 58 µM in [8]; > 100 µM in experiment [5]. For the same compound, the GI50 in experiment [6] and in experiment [9] was > 100 µM throughout. Moreover, the TGI in experiment [7], in experiment [1], in experiment [2], in [3], in [8] and in [5] was > 100 µM throughout. In addition, the TGI in experiment [6] and in experiment [9] was > 100 µM each time.

Consider `CCN(CC)CCN1C(=O)c2cccc3cc(N)cc(c23)C1=O`, for which the TGI was > 100 µM in [7]; 16.8 µM in experiment [1]; 40.3 µM in experiment [2]; 44.2 µM in experiment [3]; 22.2 µM in experiment [8]; 21.8 µM in [5]. Further, the TGI in [6] and in experiment [9] was > 100 µM each time.

Regarding `Cc1ccc(CNc2ccc(Cl)cc2NCc2ccc(C)c(O)c2)cc1O`, the GI50 in experiment [7] was 7.39 µM; in experiment [1], 8.01 µM; in experiment [2], 8.85 µM; in experiment [3], 5.98 µM; in experiment [8], 6.7 µM; in experiment [5] it was 6.59 µM. In addition, the GI50 is 7.69 µM in experiment [6] and 7.4 µM in [9]. In addition, the TGI in experiment [7] is 14 µM; in experiment [1], 15.9 µM; in experiment [2], 16.8 µM; in experiment [3] it was 18 µM; in experiment [8], 13.1 µM; in [5], 13.9 µM. Moreover, the TGI turned out to be 15.3 µM in experiment [6] and 20.1 µM in experiment [9].

`CCN(CC)c1ccc(C=C2C(=O)NC(=S)NC2=O)cc1`: the GI50 is 1.72 µM in [7]; 2.49 µM in experiment [1]; 5.7 µM in experiment [2]; 3.1 µM in experiment [3]; 2.31 µM in experiment [8]; 1.77 µM in experiment [5]. In addition, the GI50 in [6] is 3.55 µM; in experiment [9] it was 9.62 µM. Besides, the TGI in experiment [7] came out at 4.5 µM; in [1] it was 6.62 µM; in [2], 19.1 µM; in experiment [3], 10.7 µM; in experiment [8], 7.1 µM; in experiment [5], 4.29 µM. The TGI came out at 13.8 µM in experiment [6] and 25.7 µM in experiment [9].

With `Cc1n[nH]c(C)c1-c1c(C)n[nH]c1C`, the GI50 in experiment [7] is 1.54 µM; in [1] it was 1.92 µM; in [2] it was 2.4 µM; in experiment [3] it was 1.94 µM; in experiment [8], 1.93 µM; in experiment [5], 1.66 µM. In addition, the GI50 in experiment [6] is 2.06 µM; in [9] it was 1.91 µM. For the same compound, the TGI in experiment [7] is 3.13 µM; in [1], 4.23 µM; in [2] it was 9.11 µM; in [3], > 35.6 µM; in experiment [8], 4.82 µM; in experiment [5] it was 3.63 µM. Besides, the TGI in experiment [6] was 5.13 µM; in experiment [9] it was 7.09 µM.

For the compound `CC[C@@]12CC(C(=O)OC)=C3Nc4ccccc4[C@@]34CCN(C[C@H]3O[C@H]31)[C@@H]24`, the GI50 in experiment [7] is 36.9 µM; in experiment [1] it was 34.4 µM; in [2], 94.9 µM; in [3], 23.2 µM; in experiment [8], 16.2 µM; in experiment [5], 20.9 µM. For the same compound, the GI50 in experiment [6] is 16.1 µM; in [9] it was 27.5 µM. The TGI is > 100 µM in experiment [7]; > 100 µM in [1]; > 100 µM in experiment [2]; > 100 µM in [3]; 44.1 µM in experiment [8]; > 100 µM in experiment [5]. Besides, the TGI was 30.7 µM in experiment [6] and > 100 µM in experiment [9].

Take `COc1ccc(-c2cc(-c3ccc(Cl)cc3)c(C#N)c(=O)n2CCCCCC(=O)Nc2ccccc2N)cc1`: the GI50 in experiment [7] was 2.04 µM; in [1] it was 3.15 µM; in experiment [2], 3.49 µM; in [3] it was 3.37 µM; in experiment [8], 3.69 µM; in [5], 4.43 µM. For the same compound, the GI50 in [6] is 23.1 µM; in experiment [9], 3.33 µM. The TGI in experiment [7] is 5.97 µM; in [1], 33.2 µM; in [2], 52.1 µM; in experiment [3], > 100 µM; in [8], 18.7 µM; in experiment [5], > 100 µM. Moreover, the TGI in experiment [6] and in experiment [9] was > 100 µM throughout.
